Measured values taken from PMC10216263, “Favorable Preclinical Pharmacological Profile of a Novel Antimalarial Pyrrolizidinylmethyl Derivative of 4-amino-7-chloroquinoline with Potent In Vitro and In Vivo Activities” (Biomolecules, 2023).
Read-outs that look alike come from different tables or passages of the source.

Key:
[1] = test system: P. berghei ANKA; assay: Oral curative activity against P. berghei ANKA; assay type: in vivo, P. berghei in mice; conditions: for Average survival (days) after infection: individual values in brackets
[2] = cited from earlier work
[3] = test system: P. falciparum FCR3 (CQ-R); assay: In vitro antimalarial activity, [3H]-hypoxanthine incorporation (LSHTM); assay type: cell-based; conditions: Plasmodium falciparum
[4] = test system: P. falciparum TM90C2A (CQ-R); assay: as above; assay type: cell-based; conditions: Plasmodium falciparum, read-out: P. falciparum IC50 nM, TM90C2A (CQ-R)
[5] = test system: P. falciparum V1-S (CQ-R); assay: as above; assay type: cell-based; conditions: Plasmodium falciparum, read-out: P. falciparum IC50 nM, V1-S (CQ-R)
[6] = test system: P. falciparum W2 (CQ-R); parameters: method as in PMID 18538567; conditions: 72 h incubation, pLDH method, mean of 3 experiments; cited from earlier work
[7] = test system: P. falciparum 3D7 (CQ-S); assay: In vitro antimalarial activity, [3H]-hypoxanthine incorporation (LSHTM); assay type: cell-based; conditions: Plasmodium falciparum, 3D7, read-out: P. falciparum IC50 nM, 3D7 (CQ-S)
[8] = test system: P. falciparum K1 (CQ-R); assay: as above; assay type: cell-based; conditions: Plasmodium falciparum
[9] = test system: P. falciparum D10 (CQ-S); parameters: method as in PMID 18538567; conditions: 72 h incubation, pLDH method, mean of 3 experiments; cited from earlier work
[10] = test system: Pf-3D7 gametocytes >95% Stage V; assay: Gametocyte luciferase assay (3D7elo1-pfs16-CBG99); assay type: cell-based, P. falciparum; conditions: Plasmodium falciparum, 3D7, read-out: Pf-3D7 gametocytes IC50 (nM), >95% Stage V
Procedure: (§1) In vitro activity of MG3 against P falciparum sexual gametocyte stages […]
(§2) luminescent transgenic 3D7 strain (3D7elo1-pfs16-CBG99) at two different stages (I-III and V) using the […]
(§3) Briefly, 100 µL of culture medium were removed from each well to increase hematocrit; 70 µL of resuspended culture were transferred to a black 96-well plate; 70 µL of D-luciferin (1 mM in citrate buffer 0.1 M, pH 5.5) were added. Luminescence measurements were performed after 10 min with 500 ms integration time using a Synergy4-BioTek reader.
(§4) (1 picture or pasted object on this page, not shown here)

[11] = test system: Pf-3D7 gametocytes >95% Stage I-III; assay: Gametocyte luciferase assay (3D7elo1-pfs16-CBG99); assay type: cell-based, P. falciparum; conditions: Plasmodium falciparum
Procedure: as §1, §2, §3, §4

[12] = test system: P. falciparum K1 (CQ-R); assay: In vitro combination study (isobologram, ∑FIC); assay type: cell-based
[13] = test system: P. falciparum field isolates; assay: Chemosensitivity assay on field isolates; assay type: cell-based; conditions: Plasmodium falciparum
Procedure: (§5) The 10 P. vivax and 10 P. falciparum isolates used in this study were obtained from Mae Sod District, Tak Province, Thailand. […] Isolates were collected in 5 mL lithium-heparinized tubes and sent to the laboratory within 5–6 h.

[14] = test system: P. vivax field isolates; assay: Chemosensitivity assay on field isolates; assay type: cell-based; conditions: Plasmodium vivax, read-out: P. vivax IC50 nM, Field Isolates
Procedure: as §5

[15] = test system: P. falciparum IPC5202 (ARM-R); assay: microbe, parasite or virus in culture; assay type: cell-based; conditions: Plasmodium falciparum, 72 h
Procedure: The strains D10 and 3D7 (CQ-Sensitive), and V1-S (CQ, pyrimethamine and cycloguanil resistant), K1 (CQ and PYR resistant), W2 and FCR3 (CQ-Resistant), TM90C2A (CQ, MQ, PYR and ATQ resistant) and IPC 5202 (MR4-1240, artemisinin-resistant, K13 mutation, and R539T) of Pf were cultured in vitro as described by Trager and Jensen with minor modifications. Briefly, parasites were maintained at 5% hematocrit (human type A-positive red blood cells) in RPMI 1640 (EuroClone, S.p.A. Milan, Italy) medium with the addition of 10% heat inactivate human serum or 1% AlbuMax (In vitrogen, Milan, Italy), 20 mM Hepes and 2 mM glutamine (Euroclone), at 37 °C in a standard gas mixture consisting of 1–3% O2, 5% CO2, and 92–94% N2.
Compounds were dissolved in either water or DMSO and then diluted with medium to achieve the required concentrations (final non-toxic DMSO concentration <1%). Asynchronous cultures of Pf with parasitaemia of 1–1.5% and 1% final hematocrit were aliquoted into 96-well flat-bottom microplates (Corning, Glendale, AZ, USA) with serial dilutions of test compounds and incubated for 72 h at 37 °C. Parasite growth was determined spectrophotometrically (OD650) by measuring the activity of the parasite lactate dehydrogenase (pLDH) according to a modified version of the method of Makler in control and drug-treated cultures.

[16] = test system: P. berghei ANKA; parameters: method as in PMID 19284751; conditions: oral 4-day test; cited from earlier work
[17] = test system: P. yoelii NS; parameters: method as in PMID 19284751; conditions: oral 4-day test; cited from earlier work
[18] = test system: P. falciparum K1 (CQ-R); parameters: method as in PMID 17466277; conditions: literature value; read-out: IC50 against K1 strain; cited from earlier work
[19] = test system: Salmonella typhimurium TA100; assay: Bacterial Reverse Mutation Assay; conditions: Positive Control 1.25 µg/plate, TA 100, with metabolic activation
Procedure: (§8) using the preincubation method (30 min, 37°C) with and without phenobarbital-5,6-benzoflavone induced
(§9) MG3 was dissolved in distilled water (H2O) at
(§10) the maximum concentration of 40 mg/mL and tested in a preliminary range-finding test in all strains of
(§11) metabolic activation to determine the toxicity of the compound.

[20] = test system: Escherichia coli WP2 uvrA; assay: Bacterial Reverse Mutation Assay; conditions: Positive Control 5 µg/plate, with metabolic activation
Procedure: as §8, §9, §10, §11

[21] = test system: Salmonella typhimurium TA98; assay: Bacterial Reverse Mutation Assay; conditions: Positive Control 1.25 g/plate, TA 98, with metabolic activation
Procedure: as §8, §9, §10, §11

[22] = test system: dog hepatocytes; assay: Metabolic profiling in hepatocytes; assay type: in vitro ADME; conditions: 1 h, 10 µM
Procedure: (§6) For metabolite profiling, MG3.2HCl (10 µM) was incubated with mouse, rat, dog, monkey, and human hepatocytes (300,000 cells/mL for the mouse and 1 × 10^6 cells/mL for the other species) in Leibovitz L-15 medium, at 37 °C. Incubations were performed in a 12-well plate under shaking. Aliquots of the incubation samples, together with a control in medium alone, were taken at t = 0 and 60 min; the metabolism was stopped by the addition of an equal volume of chilled ACN and the samples were centrifuged at 1100 rpm for 20 min. The supernatant was stored at −20 °C until analysis. The analyses were performed using an HPLC system (Agilent) online with a photodiode array (PDA) detector (Agilent) coupled to a Mass Spectrometer Q-TOF 2 (Waters), ESI positive, following the method reported in Table 1.
(§7) The software utilized for searching the accurate masses of possible metabolites was Metabolynx, version 4.1 (Waters Corporation, Milford, MA, USA), with a mass window of 40 mDa. Samples were then re-run in MS/MS mode by selecting the masses of possible metabolites found. The collision energy used to obtain MS/MS data was 25 eV. The proposed identity of metabolites was based on their accurate mass (using LockSpray correction), with an accuracy of +/−5 mDa. MS/MS analyses were performed to verify that peaks were drug-related and to obtain structural information from the fragment ions formed. The structures of some metabolites are proposed. The approximate relative amounts of parent and metabolites were determined from the absolute areas taken from a selected ion chromatogram at the metabolite masses with a mass window of 0.04 Da.

[23] = test system: rat hepatocytes; assay: Metabolic profiling in hepatocytes; assay type: in vitro ADME; conditions: rat, 60 min, 10 µM
Procedure: as §6, §7

[24] = test system: monkey hepatocytes; assay: Metabolic profiling in hepatocytes; assay type: in vitro ADME; conditions: 1 h, 10 µM
Procedure: as §6, §7

[25] = test system: mouse hepatocytes; assay: Metabolic profiling in hepatocytes; assay type: in vitro ADME; conditions: 1 h, 10 µM
Procedure: as §6, §7

[26] = test system: human hepatocytes; assay: Metabolic profiling in hepatocytes; assay type: in vitro ADME; conditions: human, 60 min, 10 µM
Procedure: as §6, §7

[27] = FCR3, read-out: P. falciparum IC50 nM, FCR3 (CQ-R)
[28] = K1, read-out: P. falciparum IC50 nM, K1 (CQ-R)
[29] = 72 h, [3H]-hypoxanthine incorporation, mean of 3 experiments

CCN(CC)Cc1cc(Nc2ccnc3cc(Cl)ccc23)ccc1O [Amodiaquine, amodiaquine]
% Suppression of parasitaemia (on day 4 post infection) ([1]; oral dose 3 x 10 mg/kg): 100% | Average survival (days) after infection ([1]; oral dose 3 x 10 mg/kg): 11 (9, 11, 11, 12, 13) days

CC(C)(C)NCc1ccc(Nc2ccnc3cc(Cl)ccc23)cc1O [NTBI, N-tert-butyl isoquine]
absolute bioavailability ([2]; literature value): 68%

CCN(CC)CCCC(C)Nc1ccnc2cc(Cl)ccc12 (stereo not drawn) [CQ, chloroquine]
IC50 [3, 27]: 194 nM | IC50 [4]: 145 nM | IC50 [5]: 774 nM | IC50 [6]: 294 nM | IC50 [7]: 12.1 nM | % Suppression of parasitaemia (on day 4 post infection) ([1]; oral dose 3 x 30 mg/kg): 99.84% | Average survival (days) after infection ([1]; oral dose 3 x 30 mg/kg): 13 (12, 12, 13, 13, 13) days | IC50 [8, 28]: 708 nM | IC50 [9]: 16.5 nM | IC50 [10]: 11700 ± 4120 nM | IC50 ([11]; 3D7, read-out: Pf-3D7 gametocytes IC50 (nM), >95% Stage I-III): 104 ± 34.7 nM | Mean ∑FIC50 (95% CI) ([12]; in combination with ASN, K1, IC50 level): 1.67 (1.44 – 1.90) | Mean ∑FIC50 (95% CI) ([12]; in combination with DHA, K1, IC50 level): 1.27 (1.16 – 1.38) | Mean ∑FIC50 (95% CI) ([12]; in combination with RKA-182, K1, IC50 level): 1.19 (0.77 – 1.60) | IC50 ([13]; read-out: P. falciparum IC50 nM, Field Isolates, mean of 10 field isolates, Thai Burmese Border): 252 nM | IC50 [14]: 86.6 nM | IC50 ([15]; read-out: P. falciparum IC50 nM, IPC5202 (ARM-R)): 163 nM

CC(C)(C)NCc1cc(Nc2ccnc3cc(Cl)ccc23)ccc1F [FAQ4, 4′-Fluoro-N-tert-butylamodiaquine]
ED50 (95% CI) Mean [16]: 5.30 (4.10–6.80) mg/kg | ED90 (95% CI) Mean [16]: 12.40 (10.7–14.4) mg/kg | ED50 (95% CI) Mean [17]: 7.70 (6.70–8.90) mg/kg | ED90 (95% CI) Mean [17]: 10.60 (9.40–11.80) mg/kg

C[C@H]1[C@@H](O)O[C@@H]2O[C@@]3(C)CC[C@H]4[C@H](C)CC[C@@H]1[C@@]24OO3 [DHA, dihydroartemisinin]
IC50 [3, 27]: 1.23 nM | IC50 [5]: 1.8 nM | IC50 [6]: 2 nM | IC50 [7]: 3 nM | IC50 [8, 28]: 1.4 nM | IC50 [9]: 3.9 nM | IC50 ([15]; read-out: P. falciparum IC50 nM, IPC5202 (ARM-R), 72 h incubation, pLDH method): 2.2 nM

Clc1ccc2c(N3CCN(CCCN4CCN(c5ccnc6cc(Cl)ccc56)CC4)CC3)ccnc2c1 [piperaquine]
IC50 [18]: 49 nM

C[C@H]1[C@H](OC(=O)CCC(=O)O)O[C@@H]2O[C@@]3(C)CC[C@H]4[C@H](C)CC[C@@H]1[C@@]24OO3 [ASN, artesunate]
IC50 ([3]; FCR3, 72 h, [3H]-hypoxanthine incorporation, mean of 3 experiments, read-out: P. falciparum IC50 nM, FCR3 (CQ-R)): 2.6 nM | IC50 [4, 29]: 2.6 nM | IC50 [5, 29]: 2.7 nM | % Suppression of parasitaemia (on day 4 post infection) ([1]; oral dose 3 x 30 mg/kg): 99.09% | Average survival (days) after infection ([1]; oral dose 3 x 30 mg/kg): 8 (7, 8, 8, 9, 9) days | IC50 ([8]; K1, 72 h, [3H]-hypoxanthine incorporation, mean of 3 experiments, read-out: P. falciparum IC50 nM, K1 (CQ-R)): 2.6 nM | IC50 ([13]; mean of 10 field isolates, Thai Burmese Border, read-out: P. falciparum IC50 nM, Field Isolates): 4.2 nM | IC50 ([14]; mean of 10 field isolates, Thai Burmese Border): 2.3 nM

CN(C)c1ccc2nc3ccc(=[N+](C)C)cc-3sc2c1 [Methylene Blue, reference compound]
IC50 [10]: 145 ± 42.6 nM | IC50 ([11]; 3D7, read-out: Pf-3D7 gametocytes IC50 (nM), >95% Stage I-III, luciferase readout, 3D7elo1-pfs16-CBG99): 59.6 ± 21.7 nM

Nc1ccc2cc3ccccc3cc2c1 [2-aminoanthracene, reference compound]
fold increase value (ratio treated/solvent revertant numbers) ([19]; I° Exp.): 5.1 | fold increase value (ratio treated/solvent revertant numbers) ([19]; Range finding): 7.7 | fold increase value (ratio treated/solvent revertant numbers) ([20]; I° Exp.): 13.0 | fold increase value (ratio treated/solvent revertant numbers) ([20]; Range finding): 8.2 | fold increase value (ratio treated/solvent revertant numbers) ([21]; I° Exp.): 37.2 | fold increase value (ratio treated/solvent revertant numbers) ([21]; Range finding): 26.5

CCN(CC)CCCNc1ccnc2cc(Cl)ccc12 [AQ13]
absolute bioavailability ([2]; in vivo): 70%

OC(Nc1ccnc2cc(Cl)ccc12)C12CCCN1CCC2 (stereo not drawn) [M2]
% of Total Drug Related Material [22]: 27% | % of Total Drug Related Material [23]: 6% | % of Total Drug Related Material [24]: 1% | % of Total Drug Related Material [25]: 3% | % of Total Drug Related Material [26]: 1%
